Assays:
Assay type in all cases: in vivo
Settings in all cases: active ingredient amount 31 g/ha, 14th day after application
[1] = tested on: barnyardgrass (Echinochloa crus-qalli L.); assay: Test Example 1: foliar treatment, growth inhibition rate on 14th day
Outline: (§1)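 Visual 0–100% inhibition scoring (100 = complete kill) at 14 days after foliar treatment of soil-grown seedlings at species-specific leaf stages, with the compound sprayed as a wettable powder or emulsifiable concentrate dilution.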

[2] = tested on: wheat (Triticum aestivum L.); assay: as above
Outline: as §1

[3] = tested on: corn (Zea mays L.); assay: as above
Outline: as §1

[4] = tested on: soybean (Glycine max Merr.); assay: as above
Outline: (§2)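 Sow seeds in upland soil pots; at target leaf stage (wild oat 0.4–1.2, rice 0.2–2.7, foxtail 0.5–3.2, soybean primary leaf) spray formulated compound in water, 1,000 L/ha, 0.1 vol % surfactant. Score inhibition visually at day 14, 0–100%.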

[5] = tested on: redroot pigweed (Amaranthus retroflexus L.); assay: as above
Outline: as §1

[6] = tested on: crabgrass (Digitaria sanquinalis L.); assay: as above
Outline: as §1

[7] = tested on: italian ryegrass (Lolium multiflorum Lam.); assay: as above
Outline: as §1

[8] = tested on: wild oat (Avena fatua L.); assay: as above
Outline: as §2

[9] = tested on: green foxtail (Setaria viridis L.); assay: as above
Outline: as §2

[10] = tested on: rice (Oryza sativa L.); assay: as above
Outline: as §2

[11] = tested on: barnyardgrass (Echinochloa crus-qalli L.); assay: Test Example 2: soil application on the day after sowing, growth inhibition rate on 14th day
Outline: (§3)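 Field soil in 1/300,000 ha pots was sown, and the next day compounds formulated as wettable powders or emulsifiable concentrates were diluted in water (1,000 L/ha) and soil-sprayed at the prescribed active ingredient rates. Growth inhibition was scored visually 14 days later, 0 (untreated) to 100 (complete kill).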

[12] = tested on: wheat (Triticum aestivum L.); assay: as above
Outline: as §3

[13] = tested on: corn (Zea mays L.); assay: as above
Outline: as §3

[14] = tested on: soybean (Glycine max Merr.); assay: as above
Outline: as §3

[15] = tested on: redroot pigweed (Amaranthus retroflexus L.); assay: as above
Outline: as §3

[16] = tested on: velvetleaf (Abutilon theophrasti MEDIC.); assay: as above
Outline: as §3

[17] = tested on: green foxtail (Setaria viridis L.); assay: as above
Outline: as §3

[18] = tested on: rice (Oryza sativa L.); assay: as above
Outline: as §3

[19] = tested on: prickly sida (Sida spinosa L.); assay: as above
Outline: as §3

[20] = tested on: crabgrass (Digitaris sanquinalis L.); assay: as above
Outline: as §3

Row | SMILES | Growth inhibition rate (%) Barnyardgrass [1] | Growth inhibition rate (%) Wheat [2] | Growth inhibition rate (%) Corn [3] | Growth inhibition rate (%) Soybean [4] | Growth inhibition rate (%) Redroot pigweed [5] | Growth inhibition rate (%) Crabgrass [6] | Growth inhibition rate (%) Italian ryegrass [7] | Growth inhibition rate (%) Wild oat [8] | Growth inhibition rate (%) Green foxtail [9] | Growth inhibition rate (%) Rice [10] | Growth inhibition rate (%) Barnyardgrass [11] | Growth inhibition rate (%) Wheat [12] | Growth inhibition rate (%) Corn [13] | Growth inhibition rate (%) Soybean [14] | Growth inhibition rate (%) Redroot pigweed [15] | Growth inhibition rate (%) Velvetleaf [16] | Growth inhibition rate (%) Green foxtail [17] | Growth inhibition rate (%) Rice [18] | Growth inhibition rate (%) Prickly sida [19] | Growth inhibition rate (%) Crabgrass [20]
1 | CCn1nc(C)c(OC(C)=O)c(-c2cc(Oc3nc4ccc(Cl)cc4o3)ccc2C)c1=O [Compound 2-177] | 100% | 90% | 83% | 30% | 0% | 100% | 98% | 98% | 99% | 65% | 90% | 0% | 0% | 0% | 0% | 0% | 90% | 30% | 0% | 98%
2 | Cc1ccc(Oc2nc3ccc(Br)cc3o2)cc1-c1c(O)cnn(C)c1=O [Compound 2-181] | 100% | 35% | 70% | 0% | 0% | 99% | 93% | 83% | 100% | 10% | 90% | 0% | 0% | 0% | 0% | 0% | 40% | 20% | 0% | 0%
3 | Cc1ccc(Oc2cnc(C(F)(F)F)cn2)cc1-c1c(O)c(C)nn(C)c1=O [Compound 2-194] | 85% | 0% | 60% | 10% | 0% | 90% | 35% | 10% | 90% | 0% | 95% | 0% | 40% | 0% | 0% | 0% | 99% | 30% | 0% | 83%
4 | CC(=O)Oc1c(C)nn(C)c(=O)c1-c1cc(Oc2cnc(C(F)(F)F)cn2)ccc1C [Compound 2-195] | 93% | 35% | 83% | 30% | 0% | 90% | 85% | 90% | 93% | 40% | 98% | 0% | 0% | 0% | 0% | 0% | 99% | 20% | 0% | 98%
5 | CC(=O)Oc1c(C)nn(C)c(=O)c1-c1cc(Oc2cnc3cc(Cl)ccc3n2)ccc1C [Compound 3-33] | 100% | 100% | 10% | 30% | 0% | 99% | 98% | 100% | 100% | 93% | 100% | 40% | 20% | 0% | 0% | 0% | 100% | 60% | 0% | 99%
6 | CCc1nn(C)c(=O)c(-c2cc(Oc3cnc4cc(Cl)ccc4n3)ccc2C)c1O [Compound 3-34] | 100% | 90% | 15% | 30% | 0% | 95% | 99% | 95% | 100% | 90% | 99% | 0% | 20% | 0% | 0% | 0% | 98% | 20% | 0% | 65%
7 | COCOc1c(C)nn(C)c(=O)c1-c1cc(Oc2cnc3cc(Cl)ccc3n2)ccc1C [Compound 3-40] | 99% | 98% | 25% | 10% | 0% | 99% | 98% | 98% | 99% | 85% | 90% | 0% | 10% | 0% | 0% | 0% | 40% | 10% | 0% | 10%

Reference: patent US10870638B2, “Pyridazinone compound or its salt, and herbicide containing it” (ISHIHARA SANGYO KAISHA, LTD., priority 2016, dated 2020)
